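Results reflect a 48-hour exposure of cells in 96-well plates to compound at five concentrations. GI50: concentration for 50% inhibition of growth. TGI marks complete inhibition of growth.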
Tests used:
Assay in all cases: growth of human tumour cells (NCI), 48 h
[1] = test system: OVCAR-5 ovarian
[2] = test system: SK-MEL-28 melanoma
[3] = test system: OVCAR-8 ovarian
[4] = test system: HT29 colon
[5] = test system: A498 renal
[6] = test system: T-47D breast
[7] = test system: NCI-H226 lung
[8] = test system: OVCAR-4 ovarian
[9] = test system: UACC-62 melanoma
[10] = test system: MOLT-4 leukemia

Compound	GI50 [1]	TGI [1]	GI50 [2]	TGI [2]	GI50 [3]	TGI [3]	GI50 [4]	TGI [4]	GI50 [5]	TGI [5]	GI50 [6]	TGI [6]	GI50 [7]	TGI [7]	GI50 [8]	TGI [8]	GI50 [9]	TGI [9]	TGI [10]	GI50 [10]
COc1ccc2c(c1)CC[C@@H]1[C@@H]2CC[C@@]2(C)[C@H]1CC1(CCCCC1)[C@@H]2O	13.1 µM	28.3 µM	14.9 µM	29.5 µM	19 µM	41.5 µM	1.81 µM	4.39 µM	16.7 µM	32 µM	15.7 µM	39.7 µM	20.2 µM	44.9 µM	13.9 µM	28.7 µM	16.4 µM	31.6 µM	–	–
CCCNCc1nc2ccc(Br)cc2c(=O)n1CCC	–	–	–	29 µM	–	26.7 µM	–	29.9 µM	–	32 µM	–	–	–	26 µM	–	27.7 µM	–	19.8 µM	> 100 µM	–
Cc1c(C(=O)/C=C/c2ccc(Cl)cc2)[n+](=O)c2ccccc2n1[O-]	–	28.3 µM	–	32.6 µM	–	23.3 µM	–	28.2 µM	–	29.2 µM	–	–	–	33.7 µM	–	28.3 µM	–	26.8 µM	45.6 µM	–
O=C(CCC(=O)Nc1ccc(Cl)cc1)CC(=O)c1ccc(F)cc1	–	> 100 µM	–	> 100 µM	–	> 100 µM	–	> 100 µM	–	–	–	–	–	> 100 µM	–	> 100 µM	–	> 100 µM	> 100 µM	–
CC(=O)N1CC2Nc3ccccc3C2CC1CO (stereo unspecified)	–	> 100 µM	–	> 100 µM	–	> 100 µM	–	> 100 µM	–	> 100 µM	–	–	–	> 100 µM	–	> 100 µM	–	> 100 µM	> 100 µM	–
Brc1ccc([I+]c2ccc(Br)cc2)cc1	2.58 µM	7.9 µM	1.43 µM	3.79 µM	1.08 µM	4.01 µM	0.535 µM	3.16 µM	1.97 µM	10.7 µM	1.78 µM	11 µM	2.93 µM	15.3 µM	1.5 µM	10.6 µM	2.87 µM	17.5 µM	–	–
C(=C\c1csnn1)/c1cccnc1	–	> 100 µM	–	> 100 µM	–	> 100 µM	–	> 100 µM	–	> 100 µM	–	–	–	> 100 µM	–	> 100 µM	–	–	> 100 µM	–
O=c1ccccc2cccc(O)c12	–	–	–	> 100 µM	–	> 100 µM	–	> 100 µM	–	> 100 µM	–	–	–	–	–	> 100 µM	–	> 100 µM	> 100 µM	–
COc1ccc(C(c2ccc(C(C)C)cc(=O)c2O)c2c(O)cc3oc(-c4ccccc4)cc(=O)c3c2O)cc1 (stereo unspecified)	–	–	–	> 100 µM	–	> 100 µM	–	62.9 µM	–	51.5 µM	–	–	–	–	–	23 µM	–	42.9 µM	48.4 µM	–
O=C1/C(=C/c2ccccc2Cl)N=C(c2ccccc2)N1Cc1ccco1	> 100 µM	> 100 µM	44.7 µM	> 100 µM	> 100 µM	> 100 µM	36.4 µM	> 100 µM	24.3 µM	76.6 µM	53.2 µM	> 100 µM	–	–	–	–	12.6 µM	34.7 µM	> 100 µM	13.3 µM
O=C1CCCC/C1=C/C=C/c1ccccc1	–	> 100 µM	–	> 100 µM	–	> 100 µM	–	> 100 µM	–	> 100 µM	–	–	–	> 100 µM	–	> 100 µM	–	> 100 µM	> 100 µM	–
O=c1/c(=C/c2ccc(Cl)cc2Cl)sc2nc3ccccc3n12	–	> 100 µM	–	> 100 µM	–	> 100 µM	–	> 100 µM	–	> 100 µM	–	–	–	> 100 µM	–	> 100 µM	–	> 100 µM	> 100 µM	–
CCCCCCCCCCCCCCCC(=O)OCC(O)C1OC(=O)C(O)=C1O (stereo unspecified)	–	95.4 µM	–	41.4 µM	–	–	–	38.8 µM	–	77 µM	–	> 100 µM	–	47.1 µM	–	> 100 µM	–	75 µM	> 100 µM	–
CCOC(=O)/N=C(\N)SCc1ccccc1	–	> 100 µM	–	> 100 µM	–	> 100 µM	–	> 100 µM	–	> 100 µM	–	–	–	> 100 µM	–	> 100 µM	–	> 100 µM	> 100 µM	–
Cc1cc(NS(=O)(=O)c2ccc(NC(=O)c3cccc4c(N)c5ccccc5nc34)cc2)no1	–	> 100 µM	–	44.2 µM	–	59.4 µM	–	80.8 µM	–	52 µM	–	–	–	33.4 µM	–	70.5 µM	–	57.7 µM	> 100 µM	–
O=c1cc(Cl)nc[nH]1	–	> 100 µM	–	> 100 µM	–	> 100 µM	–	> 100 µM	–	> 100 µM	–	–	–	> 100 µM	–	> 100 µM	–	> 100 µM	> 100 µM	–
O=C1c2ccccc2C(=O)N1c1ccc(S(=O)(=O)Nc2ncccn2)cc1	> 100 µM	> 100 µM	> 100 µM	> 100 µM	> 100 µM	> 100 µM	> 100 µM	> 100 µM	> 100 µM	> 100 µM	–	–	> 100 µM	> 100 µM	> 100 µM	> 100 µM	> 100 µM	> 100 µM	> 100 µM	> 100 µM
COc1ccc2[nH]cc(-c3nc(-c4cn(C)c5ccncc45)cs3)c2c1	2 µM	3.6 µM	1.79 µM	3.22 µM	2.19 µM	4.94 µM	1.53 µM	3.33 µM	8.86 µM	21.5 µM	–	–	18.3 µM	45.9 µM	2.14 µM	4.51 µM	18.5 µM	37.5 µM	–	–
CCC[CH2][Sn]([CH2]CCC)([O]C(=O)c1cccc(F)c1)[O]C(=O)c1cccc(F)c1	2.67 µM	4.24 µM	0.703 µM	2.02 µM	1.22 µM	2.6 µM	1.73 µM	3.38 µM	0.467 µM	1.98 µM	–	–	1.16 µM	2.4 µM	2.05 µM	3.83 µM	0.719 µM	2.09 µM	2.41 µM	0.363 µM
CC1(O)CC2C(CC1SCCO)C2(C)C (stereo unspecified)	–	> 100 µM	–	> 100 µM	–	> 100 µM	–	> 100 µM	–	> 100 µM	–	–	–	–	–	> 100 µM	–	–	> 100 µM	–

Reference: PubChem BioAssay (NCI)
